Reference: BindingDB's records for doi:10.7270/Q2N014XN (Srmlsc, 2007)
Where a name gives a salt, the structure may show the parent alone.

What follows are compounds tested against T1, Diphosphomevalonate decarboxylase (Streptococcus pneumoniae serotype 2 (strain D39 / NCTC 7466), UniProt A0A0H2ZN59) (assay: diphosphomevalonate decarboxylase inhibition dose curves – biochemical, PK/LDH-coupled NADH fluorescence, hexokinase coupling counter-screen, dose response (AID 550)). Settings: not given.
T1 sequence (A0A0H2ZN59 whole entry): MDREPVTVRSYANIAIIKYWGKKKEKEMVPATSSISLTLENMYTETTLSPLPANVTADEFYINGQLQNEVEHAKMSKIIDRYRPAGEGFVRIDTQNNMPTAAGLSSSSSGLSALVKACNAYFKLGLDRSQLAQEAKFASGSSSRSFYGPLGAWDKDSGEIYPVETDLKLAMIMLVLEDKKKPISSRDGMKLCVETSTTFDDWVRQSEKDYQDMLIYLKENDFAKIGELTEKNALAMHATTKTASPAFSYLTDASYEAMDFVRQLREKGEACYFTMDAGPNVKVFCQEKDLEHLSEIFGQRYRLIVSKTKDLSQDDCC

| Structure (SMILES) | IC50 |
| --- | --- |
| O=C(CSc1ncnc2c1cnn2-c1ccccc1)Nc1ccc2c(c1)OCO2 [MLS000041214] | > 10000 µM |
| COc1ccccc1CNc1ncnc2nc[nH]c12 [MLS000101257] | > 10000 µM |
| Cc1ccccc1Cc1c(C)nc2c(C(=O)N3CCN(Cc4ccc5c(c4)OCO5)CC3)cnn2c1C [3-{[4-(1,3-benzodioxol-5-ylmethyl)piperazin-1-yl]carbonyl}-5,7-dimethyl-6-(2-methylbenzyl)pyrazolo[1,5-a]pyrimidine] | > 10000 µM |
| Cc1cccn2c(=O)c3cc(C#N)/c(=N\C(=O)c4ccc5c(c4)OCO5)n(CC(C)C)c3nc12 [MLS000082296] | 118 µM |
| CCOC(=O)N1CCN(C(=O)c2cn(CC)c3cc(N4CCN(C)CC4)c(F)cc3c2=O)CC1 [4-[1-ethyl-6-fluoro-4-keto-7-(4-methylpiperazino)quinoline-3-carbonyl]piperazine-1-carboxylic acid ethyl ester;hydrochloride] | 50.6 µM |
| COc1cc2c(cc1OC)CN(C(=O)CSc1nnc3scc(-c4ccccc4)n13)CC2 [1-(6,7-dimethoxy-3,4-dihydro-1H-isoquinolin-2-yl)-2-[(5-phenyl-3-thiazolo[2,3-c][1,2,4]triazolyl)thio]ethanone] | 584 µM |
| CCOC(=O)c1cc2c(=O)n3cccc(C)c3nc2n(CCc2ccccc2)c1=N [2-imino-10-methyl-5-oxo-1-(2-phenylethyl)-3-dipyrido[3,4-c:1',2'-f]pyrimidinecarboxylic acid ethyl ester] | 27.2 µM |
| CCCn1c(=O)c2ccccc2n2c(SCC(=O)C(C#N)C(C)=N)nnc12 (centres undefined) [(E)-3-amino-2-[1-oxo-2-[(5-oxo-4-propyl-[1,2,4]triazolo[4,3-a]quinazolin-1-yl)thio]ethyl]-2-butenenitrile] | > 10000 µM |
| Cn1cc(O)nc1NC(=O)C12CC3CC(CC(C3)C1)C2 | > 10000 µM |
| COC(=O)c1[nH]c2ccc(Cl)cc2c1NC(=O)CCN1CCOCC1 [5-chloro-3-[[3-(4-morpholinyl)-1-oxopropyl]amino]-1H-indole-2-carboxylic acid methyl ester] | 149 µM |
| CCOC(=O)c1cc2c(cn1)[nH]c1ccccc12 | 49.4 µM |
| COc1cc(C(=O)Nc2ccc3c(c2)OCO3)ccc1-n1cnnn1 [MLS000073665] | > 10000 µM |
| CCN(CCNC(=O)C1CCN(c2nnc(-n3cccc3)s2)CC1)c1ccccc1 [MLS000119699] | > 10000 µM |
| COCCn1c(C)cc(C(=O)COc2nc3ccccc3nc2C)c1C [1-[1-(2-methoxyethyl)-2,5-dimethyl-3-pyrrolyl]-2-[(3-methyl-2-quinoxalinyl)oxy]ethanone] | 3000 µM |
| CN(c1nc2ccccc2n2c(-c3ccco3)nnc12)S(=O)(=O)c1ccccc1 [MLS000083900] | 35.8 µM |
| COC(=O)c1c(NC(=O)c2ccoc2C)sc2c1CCC2 [2-[(2-methyl-3-furoyl)amino]-5,6-dihydro-4H-cyclopenta[b]thiophene-3-carboxylic acid methyl ester] | 98.9 µM |
| CCOc1ccc(N(CC(=O)Nc2ccc(F)c(F)c2)S(=O)(=O)c2c(C)noc2C)cc1 [MLS000117397] | > 10000 µM |
| CC1(C)C(C=C(Cl)Cl)C1C(=O)N1CCN(c2ccccc2)CC1 (centres undefined) [1-{[3-(2,2-dichlorovinyl)-2,2-dimethylcyclopropyl]carbonyl}-4-phenylpiperazine] | > 10000 µM |
| CCc1ccc(CCC(=O)Nc2ccc(C)c(C)c2)o1 [MLS000064736] | > 10000 µM |
| Cc1oc2cc(O)ccc2c(=O)c1N1C(=O)c2ccccc2C1=O [2-(2-methyl-7-oxidanyl-4-oxidanylidene-chromen-3-yl)isoindole-1,3-dione] | 50.5 µM |
| COc1ccc(C(=O)NCc2cn3c(C)csc3n2)cc1OC [3,4-dimethoxy-N-[(3-methyl-6-imidazo[2,1-b]thiazolyl)methyl]benzamide] | > 10000 µM |
| COc1cccc(C=Nn2c(C)nnc2C)c1OC [(2,3-dimethoxybenzylidene)-(3,5-dimethyl-1,2,4-triazol-4-yl)amine] | > 10000 µM |
| Cc1c(C(=O)NC2CC2)oc2ccc(S(=O)(=O)N3CCCCCC3)cc12 [5-(1-azepanylsulfonyl)-N-cyclopropyl-3-methyl-2-benzofurancarboxamide] | > 10000 µM |
| COc1cccc(C(=O)OCn2nnc3ccccc3c2=O)c1 [(4-oxidanylidene-1,2,3-benzotriazin-3-yl)methyl 3-methoxybenzoate] | > 10000 µM |
| CCCn1c(C)nc2c(c1=O)c1nc3ccccc3nc1n2-c1ccc2c(c1)OCCO2 [MLS000042026] | > 10000 µM |

| Structure (SMILES) | IC50 |
| --- | --- |
| CC1CC(C)CN(CCCNC(=O)Cn2ncc3c(=O)oc4ccccc4c32)C1 (centres undefined) [MLS000116997] | > 10000 µM |
| Cc1c(NC(=O)C2CCN(S(=O)(=O)c3ccccc3)CC2)c(=O)n(-c2ccccc2)n1C [1-(benzenesulfonyl)-N-(1,5-dimethyl-3-oxo-2-phenyl-4-pyrazolyl)-4-piperidinecarboxamide] | > 10000 µM |
| Cc1cc(N2CCN(C3CCCC3)CC2)n2nc(C)c(-c3ccccc3)c2n1 [7-(4-cyclopentyl-1-piperazinyl)-2,5-dimethyl-3-phenylpyrazolo[1,5-a]pyrimidine] | > 10000 µM |
| COc1ccc2c(c1)C1(C)CC(C)(C)N2C(=O)N1c1ccccc1 (centres undefined) [MLS000027457] | 182 µM |
| Cc1ccccc1CN1CCN(S(=O)(=O)c2ccc(F)cc2)CC1 [1-(4-fluorophenyl)sulfonyl-4-(2-methylbenzyl)piperazine] | > 10000 µM |
| O=C(Nc1ccc(F)cc1)N(CCCN1CCOCC1)Cc1cc2cc3c(cc2[nH]c1=O)OCO3 [3-(4-fluorophenyl)-1-[3-(4-morpholinyl)propyl]-1-[(6-oxo-5H-[1,3]dioxolo[4,5-g]quinolin-7-yl)methyl]urea] | 17.6 µM |
| CCc1nnc(NC(=O)CSc2nnc(COc3ccccc3)n2Cc2ccccc2)s1 [2-(4-Benzyl-5-phenoxymethyl-4H-[1,2,4]triazol-3-ylsulfanyl)-N-(5-ethyl-[1,3,4]thiadiazol-2-yl)-acetamide] | > 10000 µM |
| CN1CCN(CCNC(=O)c2cc3c(=O)n(C)c4ccccc4c3n2C)CC1 [1,5-dimethyl-N-[2-(4-methyl-1-piperazinyl)ethyl]-4-oxo-2-pyrrolo[3,2-c]quinolinecarboxamide] | 751 µM |
| CCC(=O)N(Cc1cc2cc(OC)ccc2[nH]c1=O)c1cc(C)ccc1C | 88.5 µM |
| Nc1c(C(=O)NC2CCCC2)sc2nc(-c3cccs3)ccc12 [3-Amino-6-thiophen-2-yl-thieno[2,3-b]pyridine-2-carboxylic acid cyclopentylamide] | 172 µM |
| CCOc1cc(NC(=O)c2ccco2)c(OCC)cc1NC(=O)CCc1ccc(OC)cc1 [Furan-2-carboxylic acid {2,5-diethoxy-4-[3-(4-methoxy-phenyl)-propionylamino]-phenyl}-amide] | > 10000 µM |
| C/C=C/Cn1c(N(C)Cc2ccccc2)nc2c1c(=O)[nH]c(=O)n2C [8-[benzyl(methyl)amino]-7-[(E)-but-2-enyl]-3-methylpurine-2,6-dione] | > 10000 µM |
| COc1cc(-c2nc3cnccc3n2C)cc(OC)c1OC [1-Methyl-2-(3,4,5-trimethoxy-phenyl)-1H-imidazo[4,5-c]pyridine] | > 10000 µM |
| Cn1c(-c2ccc(N)cc2)nc2ccccc21 [4-(1-methyl-2-benzimidazolyl)aniline] | > 10000 µM |
| CC(C)CC(=O)NCC(C)NC(=O)CC(C)C (centres undefined) [3-methyl-N-[2-(3-methylbutanoylamino)propyl]butanamide] | > 10000 µM |
| O=C1NC(=O)C(CC(=O)N(c2ccccc2)C2(C(=O)NC3CCCC3)CCCCC2)N1 (centres undefined) [1-[2-[2,5-bis(oxidanylidene)imidazolidin-4-yl]ethanoyl-phenyl-amino]-N-cyclopentyl-cyclohexane-1-carboxamide] | > 10000 µM |
| CCN(CC)CCCN(Cc1cc2cc3c(cc2[nH]c1=O)OCO3)C(=O)Nc1ccccc1OC [1-[3-(diethylamino)propyl]-3-(2-methoxyphenyl)-1-[(6-oxidanylidene-5H-[1,3]dioxolo[4,5-g]quinolin-7-yl)methyl]urea] | 33.7 µM |
| CCc1cc2c(=O)c(-c3nc4ccccc4[nH]3)coc2cc1OC(=O)N1CCOCC1 | 189 µM |
| COc1cc(C2C3=C(CC(C)(C)CC3=O)N=C(C)C2C#N)cc(OC)c1O (centres undefined) | > 10000 µM |
| COc1ccc(-c2cc(C(F)(F)F)n3nc(C(=O)N4CCC5(CC4)OCCO5)cc3n2)cc1OC [8-{[5-(3,4-dimethoxyphenyl)-7-(trifluoromethyl)pyrazolo[1,5-a]pyrimidin-2-yl]carbonyl}-1,4-dioxa-8-azaspiro[4.5]decane] | 75.3 µM |
| CCn1c2c(c3cc(C(=O)O)ccc31)CCCC2=O [9-ethyl-1-oxo-2,3,4,9-tetrahydro-1H-carbazole-6-carboxylic acid] | 78.5 µM |
| Nc1cc(N)cc(-c2nc3ccccc3[nH]2)c1 [SMR000008815] | 79.1 µM |
| Cc1ccc(C2C3CN(C(C)C)CCC3=C(C#N)C(=N)C2(C#N)C#N)cc1 (centres undefined) [SMR000034220] | 39.6 µM |
| N#Cc1c(S)nc2c(c1-c1cccnc1)CCCC2 [SMR000104204] | 20.1 µM |
| COc1ccc(NC(=O)c2nnn(Cc3ccc(SC)cc3)c2N)c(OC)c1 [5-amino-N-(2,4-dimethoxyphenyl)-1-[(4-methylsulfanylphenyl)methyl]triazole-4-carboxamide] | 28.5 µM |

Same assay, conditions: inactive by the depositor's call

| Structure (SMILES) | IC50 |
| --- | --- |
| CCn1nc(-c2cccs2)nc2c(=O)n(C)c(=O)nc1-2 [1-ethyl-6-methyl-3-thiophen-2-yl-pyrimido[5,4-e][1,2,4]triazine-5,7-dione] | 4.73 µM |
| COC(=O)Sc1nnc(-c2ccc(Br)cc2)o1 [MLS000084961] | 16.4 µM |
| Nc1cccc2c1C(=O)N(c1ccccc1)C2=O [4-azanyl-2-phenyl-isoindole-1,3-dione] | 60.5 µM |
| C/C(C=Nn1cnnc1)=C\c1ccco1 [(E)-3-(2-furanyl)-2-methyl-N-(1,2,4-triazol-4-yl)-2-propen-1-imine] | 125 µM |
